{"source": "patent US20150038333A1", "about": "“PLANT PROTECTIVE COMPOSITION CONTAINING ALPHA-HYDROXY ACIDS” (HELMHOLTZ ZENTRUM MÜNCHEN DEUTSCHES FORSCHUNGSZENT -RUN FÜR …, priority 2011, published 2015)", "key": {"[1]": {"test_system": "defence marker genes PR1, PDF1.2 and VSP2", "assay": "Defense marker gene expression in Col-0 plants after spraying with α-hydroxy-acid (RTqPCR)", "assay_type": "in vivo, Arabidopsis", "details": "for expression of defense marker genes (PR1 and PDF1.2): 4-week-old Col-0 plants, 24 h after treatment, 1 mM in water, preliminary, two biological replicates", "procedure": "Rosette leaves of the indicated age were collected. Total RNA was isolated using the RNeasy Plant Mini Kit (Qiagen, Germany). RNA integrity and amount was analyzed by gel electrophoresis and by spectrophotometry. One microgram of total RNA was reverse transcribed using a SuperScript II reverse transcription-PCR kit (Invitrogen; Germany) according to the manufacturer's instructions. Gene-specific primer pairs were designed using the Primer Express 3.0 software. […] Real time quantification was performed using a 7500 real time PCR system (Applied Biosystems, Germany). Individual PCR reaction mixtures contained 4 μL of diluted cDNA, 10 μL of Sybr Green Mastermix (Thermo Scientific, Germany) and […] of each primer in a final volume of 20 μL. In all experiments, three biological replicates of each sample and two technical (PCR) replicates were performed. The amount of target gene was normalized over the abundance of the constitutive UBQ5 (At3g62250) and S16 (At5g18380, At2g09990) genes. The stability of the reference genes was tested and normalization was performed using GeNorm (Vandesompele et al., 2002). For RTqPCR of infected material, plants were infected as described below. Three biological replicates were analyzed; each consisted of six individually infected leaves. Plant material was harvested before infection and mock treatments (time point 0) and at the indicated time points after treatment. Each experiment was repeated with similar results.\nFor isoleucic acid treatment, 4-week-old plants were sprayed with 0.5 or 1 mM isoleucic acid (diluted in water) or only water for mock treatments. Plants were covered with a plexiglass lid until the surface of the leaves became dry. The fifth to eighth true leaves of each plant were harvested 24 hours after treatment. Four leaves from three independent plants were pooled for each replicate and analyzed by real-time PCR."}, "UGT76B1": {"biological_target": "T1, UGT76B1 (Arabidopsis thaliana, UniProt Q9C768)", "T1 construct": "The UGT76B1 open reading frame was amplified with the same primers as used for the construction of the overexpression lines; made in house", "T1 sequence (Q9C768 1-447)": "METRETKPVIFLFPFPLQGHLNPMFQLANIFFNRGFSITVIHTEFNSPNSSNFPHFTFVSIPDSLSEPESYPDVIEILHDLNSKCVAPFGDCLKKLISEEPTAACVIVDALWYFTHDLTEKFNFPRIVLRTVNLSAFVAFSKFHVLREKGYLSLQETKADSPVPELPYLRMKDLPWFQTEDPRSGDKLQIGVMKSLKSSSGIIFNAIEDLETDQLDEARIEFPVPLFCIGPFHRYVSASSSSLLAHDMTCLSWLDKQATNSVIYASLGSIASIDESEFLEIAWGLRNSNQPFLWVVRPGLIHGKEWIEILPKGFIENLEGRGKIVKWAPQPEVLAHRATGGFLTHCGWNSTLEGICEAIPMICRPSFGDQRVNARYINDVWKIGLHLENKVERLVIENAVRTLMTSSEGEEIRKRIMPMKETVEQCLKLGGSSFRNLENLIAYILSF", "assay": "In vitro glucosyltransferase activity assay of recombinant UGT76B1", "assay_type": "biochemical", "details": "0.5 mM aglycone, 5 mM UDP-glucose, 1 hour at 30° C., analyzed by mass spectrometry", "from_the_text": "A glutathione-S-transferase (GST)-UGT761 expression plasmid was constructed using pDEST15 (Invitrogen, Germany). The UGT76B1 open reading frame was amplified with the same primers as used for the construction of the overexpression lines. The recombinant protein was affinity-purified using a glutathione-coupled sepharose beads according to the manufacturer's instructions (GE Healthcare, Germany), concentrated by membrane filtration (Amicon Ultra-4; Millipore, Germany) and supplemented with 20% glycerol for storage at −20° C. (Messner et al., 2003). To analyze the UGT enzyme activity assay mixtures contained 0.1 M Tris-HCl (pH 7.5), 5 mM UDP-glucose, 0.5 mM aglycone and about 1 μg fusion protein in a final volume of 50 μL. After incubation for 1 hour at 30° C. the reaction was stopped by addition of 200 μL methanol and cleared by centrifugation. Reactions were diluted 1:50 in 70% methanol (except for valic acid, which was used without dilution) and analyzed on a API4000 mass spectrometer using direct injection into the electrospray source at a flow rate of […]. 150 Scans were accumulated for each measurement in dual ion monitoring mode, which was adjusted to monitor ions at nominal m/z ratios of the corresponding expected substrate and product peaks with a mass range of ±5 Da."}, "[2]": {"test_system": "pathogen responsive genes PR1 and PR10", "assay": "Induction of defence genes in barley leaves (semiquantitative PCR)", "assay_type": "in vivo, Hordeum vulgare", "details": "2-week-old plants sprayed with 1 mM ILA, 48 h after treatment", "procedure": "Total RNA was isolated using the RNeasy Plant Mini Kit (Qiagen, Germany). RNA integrity and amount was analyzed by gel electrophoresis and by spectrophotometry. One microgram of total RNA was reverse transcribed using a QuantiTect reverse transcription-PCR kit (Qiagen; Germany) according to the manufacturer's instructions. The following gene-specific primer pairs were kindly provided by Corina Vlot: EF1A_Hv_f (5′-[…]-3′) and EF1A_Hv_r (5′-[…]-3′) for the barley reference gene EF1A; PR1_Hv_f (5′-[…]-3′) and PR1_Hv_r (5′-[…]-3′) for barley PR1; Hv, PR10_Hv_f (5′-[…]-3′) and PR10_Hv_r (5′-[…]-3′) for barley PR10. PCR fragments were amplified using the indicated number of PCR cycles (FIG. 17) and separated on a 2% agarose gel containing ethidium bromide.\nFor ILA treatment in barley, 2-week-old plants were sprayed with either 1 mM ILA or 0.25 mg/ml BTH (benzothiadiazole/BION™), dissolved in water with 0.01% tween. For mock treatment, plants were sprayed only with water containing 0.01% tween. Leaves were harvested 48 hours after treatment and analyzed by semiquantitative PCR."}, "[3]": {"test_system": "P. syringae pv. tomato DC3000 (avrRpm1) (Ps-avir)", "assay": "Bacterial growth in Arabidopsis leaves of wild-type plants sprayed with ILA before infection", "assay_type": "in vivo, Pseudomonas syringae", "procedure": "FIG. 14: Direct effect of exogenously applied ILA on pathogen defence. Bacterial growth in Arabidopsis leaves of wild-type plants sprayed with water (blank) or 1 mM ILA (dotted) 24 h or 72 h before infection. Plants were inoculated with 5*10^5 cfu ml^−1 of Ps-avir and bacteria (cfu cm^−2) were quantified 0 and 3 days after inoculation. The graphs represent the means and standard deviations of three replicates.\nBacterial strains used in this study include Pseudomonas syringae pv. tomato DC3000 (Ps), P. syringae pv. tomato DC3000 (avrRpm1) (Ps-avir). Bacteria were grown overnight at 28° C. in King's B medium with appropriate antibiotics and diluted to 5*10^5 cfu mL^−1 with 10 mM MgCl2 for plant inoculation. Whole leaves of 5- to 6-week-old plants were infiltrated using a 1-mL syringe without a needle. Control plants were infiltrated with 10 mM MgCl2. Leaf discs from control treated and infected plants were harvested from inoculated leaves at 0, 1 and 3 d after infiltration. Bacterial growth was assessed as described previously (Katagiri et al., 2002). For each time point, three samples were made by pooling six leaf discs from three different treated plants."}, "[4]": {"details": "leaves of four-week-old Col-0 plants, 24 h after spraying isoleucic acid solution"}}}
{"smiles": "CCCCCCC(O)C(=O)O", "note": "(stereo not drawn) [2-hydroxy-octanoic acid]", "values": [{"measurement": "expression of defense marker genes (PR1 and PDF1.2)", "setting": "[1]", "value": "can also induce"}]}
{"smiles": "CCC(O)(CC)C(=O)O", "note": "[2-ethyl-2-hydroxybutyric acid]", "values": [{"measurement": "glucosylation by recombinant UGT76B1", "setting": "UGT76B1", "value": "no activity"}]}
{"smiles": "CCC(C)C(O)C(=O)O", "note": "(stereo not drawn) [isoleucic acid, 2-hydroxy-3-methylpentanoic acid]", "values": [{"measurement": "PR1 transcript level in barley", "setting": "[2]", "value": "induces"}, {"measurement": "PR10 transcript level in barley", "setting": "[2]", "value": "induces"}, {"measurement": "persistence of increased resistance after ILA spraying", "setting": "[3]; 1 mM ILA sprayed 24 h or 72 h before Ps-avir infection", "value": "1 to 3", "unit": "days"}, {"measurement": "bacterial growth compared with mock treatment", "setting": "[3]; 1 mM ILA sprayed 24 h or 72 h before infection with 5*10^5 cfu ml^-1 Ps-avir, bacteria quantified 3 days after inoculation", "value": "about four- to fivefold less bacterial growth"}, {"measurement": "PDF1.2 expression relative to mock (water) treatment", "setting": "[1]; [4]", "value": "tendency for induction"}, {"measurement": "VSP2 expression relative to mock (water) treatment", "setting": "[1]; [4]", "value": "only marginally suppressed"}, {"measurement": "PR1 expression relative to mock (water) treatment", "setting": "[1]; leaves of four-week-old Col-0 plants, 24 h after spraying isoleucic acid solution (0.5 or 1 mM)", "value": "more than tenfold induced"}, {"measurement": "glucosylation by recombinant UGT76B1", "setting": "UGT76B1", "value": "glucosylated"}]}
{"smiles": "CC(C)[C@H](O)C(=O)O", "note": "[valic acid, (S)-(+)-2-hydroxy-3-methylbutyric acid]", "values": [{"measurement": "expression of defense marker genes (PR1 and PDF1.2)", "setting": "[1]", "value": "can also induce"}, {"measurement": "glucosylation by recombinant UGT76B1", "setting": "UGT76B1", "value": "able to glucosylate"}]}
